According to patent publication US10494368B2, “Pesticidally active tetracyclic derivatives with sulfur containing substituents” (Syngenta Participations AG, priority 2015, dated 2019):

Columns and labels:
Type in all cases: in vivo
[1] = tested on: Myzus persicae (Green Peach Aphid); test: Myzus persicae feeding/contact activity on sunflower leaf discs; conditions: foliar, 144 h, application rate 200 ppm, aphid population of mixed ages on sunflower leaf discs, 6 days after infestation
Description: Feeding/Contact activity Sunflower leaf discs were placed onto agar in a 24-well microtiter plate and sprayed with aqueous test solutions prepared from 10′000 ppm DMSO stock solutions. After drying, the leaf discs were infested with an aphid population of mixed ages. The samples were assessed for mortality 6 days after infestation.

[2] = tested on: Diabrotica Balteata (Corn Root Worm); test: Diabrotica balteata on maize sprouts, spray; conditions: 96 h, application rate 200 ppm, L2 larvae on maize sprouts, 4 days after infestation, read-out: effect in at least one of the two categories (mortality or growth inhibition)
Description: Maize sprouts placed onto an agar layer in 24-well microtiter plates were treated with aqueous test solutions prepared from 10′000 ppm DMSO stock solutions by spraying. After drying, the plates were infested with L2 larvae (6 to 10 per well). The samples were assessed for mortality and growth inhibition in comparison to untreated samples 4 days after infestation.
(§1) The following compounds gave an effect of at least 80% in at least one of the two categories (mortality or growth inhibition) at an application rate of 200 ppm: […]

[3] = tested on: Plutella xylostella (Diamond Back Moth); test: Plutella xylostella on artificial diet; conditions: 120 h, application rate 200 ppm, L2 larvae on artificial diet, 5 days after infestation, read-out: effect in at least one of the two categories (mortality or growth inhibition)
Description: 24-well microtiter plates with artificial diet were treated with aqueous test solutions prepared from 10′000 ppm DMSO stock solutions by pipetting. After drying, the plates were infested with L2 larvae (10 to 15 per well). The samples were assessed for mortality and growth inhibition in comparison to untreated samples 5 days after infestation.
as §1

[4] = tested on: Euschistus heros (Neotropical Brown Stink Bug); test: Euschistus heros on soybean leaves, spray; conditions: 120 h, application rate 200 ppm, N2 nymphs on soybean leaves, 5 days after infestation, read-out: effect in at least one of the two categories (mortality or growth inhibition)
Description: Soybean leaves on agar in 24-well microtiter plates were sprayed with aqueous test solutions prepared from 10′000 ppm DMSO stock solutions. After drying the leaves were infested with N2 nymphs. The samples were assessed for mortality and growth inhibition in comparison to untreated samples 5 days after infestation.
as §1

[5] = tested on: Spodoptera littoralis (Egyptian Cotton Leaf Worm); test: Spodoptera littoralis on cotton leaf discs, spray; conditions: foliar, 72 h, application rate 200 ppm, L1 larvae on cotton leaf discs, 3 days after infestation
Description: Cotton leaf discs were placed onto agar in 24-well microtiter plates and sprayed with aqueous test solutions prepared from 10′000 ppm DMSO stock solutions. After drying the leaf discs were infested with five L1 larvae. The samples were assessed for mortality, anti-feeding effect, and growth inhibition in comparison to untreated samples 3 days after infestation. Control of Spodoptera littoralis by a test sample is given when at least one of the categories mortality, anti-feedant effect, and growth inhibition is higher than the untreated sample.

[6] = tested on: Aedes aegypti (Yellow Fever Mosquito); test: Aedes aegypti adult contact test on dried deposits; conditions: application rate 200 ppm in ethanol, adult females, after 48 h and/or 24 h
Description: Test solutions, at an application rate of 200 ppm in ethanol, were applied to 12 well tissue culture plates. Once the deposits were dry, five, two to five day old adult female Aedes aegypti were added to each well, and sustained with a 10% sucrose solution in a cotton wool plug. Assessment of knockdown was made one hour after introduction, and mortality was assessed at 24 and 48 hours after introduction.
The following compounds gave at least 80% control of Aedes aegypti after 48 h and/or 24 h: […]

CCSc1c(-c2nc3cc(C(F)(F)F)cnc3n2C)sc2ccccc12 [Compound A1, 2-(3-ethylsulfanylbenzothiophen-2-yl)-3-methyl-6-(trifluoromethyl)imidazo[4,5-b]pyridine]
≥ 80%: mortality at 200 ppm [1] | percent effect (mortality or growth inhibition) at 200 ppm [2]

CCS(=O)(=O)c1c(-c2nc3cc(C(F)(F)F)cnc3n2C)sc2ccccc12 [Compound A2, 2-(3-ethylsulfonylbenzothiophen-2-yl)-3-methyl-6-(trifluoromethyl)imidazo [4,5-b] pyridine]
≥ 80%: mortality at 200 ppm [1] | percent effect (mortality or growth inhibition) at 200 ppm [3] | percent effect (mortality or growth inhibition) at 200 ppm [4] | percent control (mortality, anti-feedant effect or growth inhibition) at 200 ppm [5] | percent effect (mortality or growth inhibition) at 200 ppm [2]

CCSc1c(-c2nc3cc(C(F)(F)F)cnc3n2C)sc2cc(Br)ccc12 [Compound A7, 2-(6-bromo-3-ethylsulfanyl-benzothiophen-2-yl)-3-methyl-6-(trifluoromethyl)imidazo[4,5-b]pyridine]
≥ 80%: percent effect (mortality or growth inhibition) at 200 ppm [3] | percent effect (mortality or growth inhibition) at 200 ppm [4] | percent control (mortality, anti-feedant effect or growth inhibition) at 200 ppm [5] | percent effect (mortality or growth inhibition) at 200 ppm [2] | pest or weed control at 200 ppm [6]

CCS(=O)(=O)c1c(-c2nc3cc(C(F)(F)F)cnc3n2C)sc2cc(-n3ccc(C(F)(F)F)n3)ccc12 [Compound A9, 2-[3-ethylsulfonyl-6-[3-(trifluoromethyl)pyrazol-1-yl]benzothiophen-2-yl]-3-methyl-6-(trifluoromethyl)imidazo[4,5-b]pyridine]
≥ 80%: percent effect (mortality or growth inhibition) at 200 ppm [3] | percent control (mortality, anti-feedant effect or growth inhibition) at 200 ppm [5] | percent effect (mortality or growth inhibition) at 200 ppm [2]

CCS(=O)(=O)c1c(-c2nc3cc(C(F)(F)F)cnc3n2C)sc2cc(C3CC3)ccc12 [Compound A11, 2-(6-cyclopropyl-3-ethylsulfonyl-benzothiophen-2-yl)-3-methyl-6-(trifluoromethyl)imidazo[4,5-b]pyridine]
≥ 80%: mortality at 200 ppm [1] | percent effect (mortality or growth inhibition) at 200 ppm [3] | percent effect (mortality or growth inhibition) at 200 ppm [4] | percent control (mortality, anti-feedant effect or growth inhibition) at 200 ppm [5] | percent effect (mortality or growth inhibition) at 200 ppm [2]

CCS(=O)(=O)c1c(-c2nc3cc(C(F)(F)F)cnc3n2C)sc2cc(C(F)(F)C(F)(F)F)ccc12 [Compound A12]
≥ 80%: percent effect (mortality or growth inhibition) at 200 ppm [3] | percent effect (mortality or growth inhibition) at 200 ppm [4] | percent control (mortality, anti-feedant effect or growth inhibition) at 200 ppm [5] | percent effect (mortality or growth inhibition) at 200 ppm [2] | pest or weed control at 200 ppm [6]

CCS(=O)(=O)c1c(-c2nc3cnc(C(F)(F)F)cc3n2C)sc2ccccc12 [Compound B2, 2-(3-ethylsulfonylbenzothiophen-2-yl)-1-methyl-6-(trifluoromethyl)imidazo[4,5-c]pyridine]
≥ 80%: mortality at 200 ppm [1] | percent effect (mortality or growth inhibition) at 200 ppm [3] | percent effect (mortality or growth inhibition) at 200 ppm [4] | percent control (mortality, anti-feedant effect or growth inhibition) at 200 ppm [5] | percent effect (mortality or growth inhibition) at 200 ppm [2]

CCSc1c(-c2nc3cc(C(F)(F)F)ccc3n2C)sc2cc(C(F)(F)F)ccc12 [Compound C1]
≥ 80%: percent effect (mortality or growth inhibition) at 200 ppm [3] | percent control (mortality, anti-feedant effect or growth inhibition) at 200 ppm [5] | percent effect (mortality or growth inhibition) at 200 ppm [2]
